According to ChEMBL document CHEMBL1201861, “Genomics of Drug Sensitity in Cancer screening data, Wellcome Trust Sanger Institute”:

Legend:
Assay in all cases: cells
A498 = type: functional, cell-based, Homo sapiens; conditions: Homo sapiens, A498;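 note: growth inhibition of human A498 cells, read out with a cell viability assay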
Description: SANGER: Inhibition of human A498 cell growth in a cell viability assay.

KP-N-YS = type: functional, cell-based, Homo sapiens; conditions: Homo sapiens, KP-N-YS;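 note: cell viability assay measuring inhibition of cell line growth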
Description: SANGER: Inhibition of human KP-N-YS cell growth in a cell viability assay.

KARPAS-45 = type: functional, cell-based, Homo sapiens; conditions: Homo sapiens, KARPAS-45;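 note: inhibition of cell line growth, read out through a viability assay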
Description: SANGER: Inhibition of human KARPAS-45 cell growth in a cell viability assay.

QIMR-WIL = type: functional, cell-based, Homo sapiens; conditions: Homo sapiens, QIMR-WIL;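 note: growth inhibition of QIMR-WIL cells, read out with a cell viability assay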
Description: SANGER: Inhibition of human QIMR-WIL cell growth in a cell viability assay.

NH-12 = type: functional, cell-based, Homo sapiens; conditions: Homo sapiens, NH-12;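 note: growth inhibition of NH-12 cells, read out with a cell viability assay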
Description: SANGER: Inhibition of human NH-12 cell growth in a cell viability assay.

Ramos-2G6-4C10 = type: functional, cell-based, Homo sapiens; conditions: Homo sapiens, Ramos-2G6-4C10;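 note: growth inhibition of the cell line, measured by a cell viability read-out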
Description: SANGER: Inhibition of human Ramos-2G6-4C10 cell growth in a cell viability assay.

DEL = type: functional, cell-based, Homo sapiens; conditions: Homo sapiens, DEL;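 note: growth inhibition of the human DEL cell line, read out with a cell viability assay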
Description: SANGER: Inhibition of human DEL cell growth in a cell viability assay.

NCI-H1650 = type: functional, cell-based, Homo sapiens; conditions: Homo sapiens, NCI-H1650;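 note: growth inhibition of human NCI-H1650 cells measured by a cell viability assay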
Description: SANGER: Inhibition of human NCI-H1650 cell growth in a cell viability assay.

SHP77 = type: functional, cell-based, Homo sapiens, SHP-77; conditions: Homo sapiens, SHP77;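 note: growth inhibition of human SHP-77 cells measured by a cell viability assay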
Description: SANGER: Inhibition of human SHP-77 cell growth in a cell viability assay.

GI-1 = type: functional, cell-based, Homo sapiens; conditions: Homo sapiens, GI-1;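 note: growth inhibition of human GI-1 cells, measured with a cell viability readout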
Description: SANGER: Inhibition of human GI-1 cell growth in a cell viability assay.

Lu-65 = type: functional, cell-based, Homo sapiens; conditions: Homo sapiens, Lu-65;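 note: growth inhibition of Lu-65 cancer cells, read out by a cell viability assay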
Description: SANGER: Inhibition of human LU-65 cell growth in a cell viability assay.

SF-539 = type: functional, cell-based, Homo sapiens; conditions: Homo sapiens, SF-539;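 note: Read-out is a cell viability assay, with IC50 reflecting inhibition of cell growth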
Description: SANGER: Inhibition of human SF539 cell growth in a cell viability assay.

IA-LM = type: functional, cell-based, Homo sapiens; conditions: Homo sapiens, IA-LM;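 note: cell viability assay measuring growth inhibition of human IA-LM cells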
Description: SANGER: Inhibition of human IA-LM cell growth in a cell viability assay.

LOX IMVI = type: functional, cell-based, Homo sapiens; conditions: Homo sapiens, LOX IMVI
Description: SANGER: Inhibition of human LOXIMVI cell growth in a cell viability assay.

L-428 = type: functional, cell-based, Homo sapiens; conditions: Homo sapiens, L-428
Description: SANGER: Inhibition of human L-428 cell growth in a cell viability assay.

no-10 = type: functional, cell-based, Homo sapiens; conditions: Homo sapiens;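 note: growth inhibition of no-10 cells, read out with a cell viability assay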
Description: SANGER: Inhibition of human no-10 cell growth in a cell viability assay.

GB-1 = type: functional, cell-based, Homo sapiens; conditions: Homo sapiens, GB-1;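 note: growth of GB-1 cells judged by a viability assay, IC50 marks the concentration inhibiting growth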
Description: SANGER: Inhibition of human GB-1 cell growth in a cell viability assay.

OCI-AML2 = type: functional, cell-based, Homo sapiens; conditions: Homo sapiens, OCI-AML2;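 note: growth inhibition of OCI-AML2 cells, read out with a cell viability assay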
Description: SANGER: Inhibition of human OCI-AML2 cell growth in a cell viability assay.

SBC-1 = type: functional, cell-based, Homo sapiens; conditions: Homo sapiens, SBC-1;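 note: cell viability assay measuring growth inhibition of the SBC-1 cell line, IC50 being the concentration that halves growth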
Description: SANGER: Inhibition of human SBC-1 cell growth in a cell viability assay.

GR-ST = type: functional, cell-based, Homo sapiens; conditions: Homo sapiens, GR-ST
Description: SANGER: Inhibition of human GR-ST cell growth in a cell viability assay.

A3-KAW = type: functional, cell-based, Homo sapiens; conditions: Homo sapiens, A3-KAW;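 note: growth inhibition of human A3-KAW cells, read out with a cell viability assay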
Description: SANGER: Inhibition of human A3-KAW cell growth in a cell viability assay.

KG-1 = type: functional, cell-based, Homo sapiens; conditions: Homo sapiens, KG-1;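 note: growth inhibition of KG-1 cells, read out by a cell viability assay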
Description: SANGER: Inhibition of human KG-1 cell growth in a cell viability assay.

NB13 = type: functional, cell-based, Homo sapiens; conditions: Homo sapiens, NB13;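 note: cell viability readout measuring growth inhibition of human NB13 cells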
Description: SANGER: Inhibition of human NB13 cell growth in a cell viability assay.

SK-NEP-1 = type: functional, cell-based, Homo sapiens; conditions: Homo sapiens, SK-NEP-1;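 note: growth inhibition of human SK-NEP-1 cells, read out by a cell viability assay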
Description: SANGER: Inhibition of human SK-NEP-1 cell growth in a cell viability assay.

OVCAR-4 = type: functional, cell-based, Homo sapiens; conditions: Homo sapiens, OVCAR-4;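 note: growth inhibition of human OVCAR-4 cells, measured with a cell viability assay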
Description: SANGER: Inhibition of human OVCAR-4 cell growth in a cell viability assay.

MN-60 = type: functional, cell-based, Homo sapiens; conditions: Homo sapiens, MN-60;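 note: growth inhibition of the MN-60 cell line, determined with a cell viability assay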
Description: SANGER: Inhibition of human MN-60 cell growth in a cell viability assay.

DU-4475 = type: functional, cell-based, Homo sapiens; conditions: Homo sapiens, DU-4475
Description: SANGER: Inhibition of human DU-4475 cell growth in a cell viability assay.

UACC-257 = type: functional, cell-based, Homo sapiens; conditions: Homo sapiens, UACC-257
Description: SANGER: Inhibition of human UACC-257 cell growth in a cell viability assay.

MZ1-PC = type: functional, cell-based, Homo sapiens; conditions: Homo sapiens, MZ1-PC;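 note: cell viability assay measuring growth inhibition of human MZ1-PC cells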
Description: SANGER: Inhibition of human MZ1-PC cell growth in a cell viability assay.

NCI-H510A = type: functional, cell-based, Homo sapiens; conditions: Homo sapiens, NCI-H510A;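 note: growth inhibition of NCI-H510A cells, read out with a cell viability assay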
Description: SANGER: Inhibition of human NCI-H510A cell growth in a cell viability assay.

TE-1 = type: functional, cell-based, Homo sapiens; conditions: Homo sapiens, TE-1;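 note: growth inhibition of the human TE-1 cell line, read out with a cell viability assay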
Description: SANGER: Inhibition of human TE-1 cell growth in a cell viability assay.

LAMA-84 = type: functional, cell-based, Homo sapiens; conditions: Homo sapiens, LAMA-84;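 note: growth inhibition of LAMA-84 cells, read out with a cell viability assay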
Description: SANGER: Inhibition of human LAMA-84 cell growth in a cell viability assay.

NCI-H1299 = type: functional, cell-based, Homo sapiens; conditions: Homo sapiens, NCI-H1299;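 note: growth inhibition of human NCI-H1299 cells, read out by a cell viability assay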
Description: SANGER: Inhibition of human NCI-H1299 cell growth in a cell viability assay.

MLMA = type: functional, cell-based, Homo sapiens; conditions: Homo sapiens, MLMA;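 note: growth inhibition of MLMA cells (human), determined through a cell viability readout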
Description: SANGER: Inhibition of human MLMA cell growth in a cell viability assay.

BB30-HNC = type: functional, cell-based, Homo sapiens; conditions: Homo sapiens, BB30-HNC;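 note: growth inhibition of the cultured cell line, read out by a cell viability assay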
Description: SANGER: Inhibition of human BB30-HNC cell growth in a cell viability assay.

NCI-H82 = type: functional, cell-based, Homo sapiens; conditions: Homo sapiens, NCI-H82;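 note: growth inhibition of NCI-H82 cells, measured with a cell viability readout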
Description: SANGER: Inhibition of human NCI-H82 cell growth in a cell viability assay.

GOTO = type: functional, cell-based, Homo sapiens; conditions: Homo sapiens, GOTO;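 note: growth inhibition of GOTO cells, read out by a cell viability assay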
Description: SANGER: Inhibition of human GOTO cell growth in a cell viability assay.

GCIY = type: functional, cell-based, Homo sapiens; conditions: Homo sapiens, GCIY;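 note: growth inhibition of the human GCIY cell line, read out by a cell viability assay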
Description: SANGER: Inhibition of human GCIY cell growth in a cell viability assay.

NCI-H209 = type: functional, cell-based, Homo sapiens; conditions: Homo sapiens, NCI-H209;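 note: growth inhibition of human NCI-H209 cells, measured by a cell viability assay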
Description: SANGER: Inhibition of human NCI-H209 cell growth in a cell viability assay.

KINGS-1 = type: functional, cell-based, Homo sapiens; conditions: Homo sapiens, KINGS-1;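 note: cell viability assay measuring suppression of KINGS-1 cell growth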
Description: SANGER: Inhibition of human KINGS-1 cell growth in a cell viability assay.

U-266 = type: functional, cell-based, Homo sapiens; conditions: Homo sapiens, U-266
Description: SANGER: Inhibition of human U-266 cell growth in a cell viability assay.

EW-13 = type: functional, cell-based, Homo sapiens; conditions: Homo sapiens, EW-13;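 note: growth inhibition of EW-13 cells, read out with a cell viability assay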
Description: SANGER: Inhibition of human EW-13 cell growth in a cell viability assay.

HCE-T = type: functional, cell-based, Homo sapiens; conditions: Homo sapiens, HCE-T;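 note: cell viability assay read-out, reporting inhibition of HCE-T cell growth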
Description: SANGER: Inhibition of human HCE-T cell growth in a cell viability assay.

SK-MEL-2 = type: functional, cell-based, Homo sapiens; conditions: Homo sapiens, SK-MEL-2;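 note: growth inhibition of human SK-MEL-2 cells measured with a cell viability assay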
Description: SANGER: Inhibition of human SK-MEL-2 cell growth in a cell viability assay.

CW-2 = type: functional, cell-based, Homo sapiens; conditions: Homo sapiens, CW-2;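 note: growth inhibition of CW-2 cells, read out by a cell viability assay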
Description: SANGER: Inhibition of human CW-2 cell growth in a cell viability assay.

TGBC1TKB = type: functional, cell-based, Homo sapiens; conditions: Homo sapiens, TGBC1TKB;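 note: growth inhibition of TGBC1TKB cells, read out by a cell viability assay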
Description: SANGER: Inhibition of human TGBC1TKB cell growth in a cell viability assay.

EW-1 = type: functional, cell-based, Homo sapiens; conditions: Homo sapiens, EW-1
Description: SANGER: Inhibition of human EW-1 cell growth in a cell viability assay.

DMS-114 = type: functional, cell-based, Homo sapiens; conditions: Homo sapiens, DMS-114
DSH1 = type: functional, cell-based, Homo sapiens; conditions: Homo sapiens, DSH1;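 note: growth inhibition of human DSH1 cells, measured with a cell viability readout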
Description: SANGER: Inhibition of human DSH1 cell growth in a cell viability assay.

Measured: IC50

Cc1cn(-c2cc(NC(=O)c3ccc(C)c(Nc4nccc(-c5cccnc5)n4)c3)cc(C(F)(F)F)c2)cn1 [NILOTINIB]
0.0049 µM: LAMA-84
> 2 µM: all other assays above
